“Also recorded” adds a separate entry of the source.
Columns and labels:
[1] = system: rat GABAB receptor (GABAB1/GABAB2); assay type: binding
[2] = system: rat GABAB receptor (GABAB1a/GABAB2); assay type: cell-based
[3] = system: human α9α10 nAChR; conditions: cited from earlier work
[4] = system: N-type calcium channels in dorsal root ganglion neurons; conditions: cited from earlier work
[5] = system: neuropathic pain models; conditions: in vivo; cited from earlier work
[6] = system: GABAB receptor; conditions: cited from earlier work
[7] = system: GABAB receptor; conditions: cited from earlier work; remark: listed apart in the source
[8] = system: N-type calcium channels; conditions: cited from earlier work

## Vc1.1
[1]
  Displacement of CGP54626-Red: No displacement; also recorded: None of these conotoxins prevented the binding of the competitive orthosteric antagonist CGP54626-Red
[2]
  GABABR activation (BRET change): do not activate GABABRs expressed in HEK cells; also recorded: no effect; also recorded: neither Vc1.1 nor any of the examined conotoxins activated the GABABR
[3]
  Potency human vs. rat α9α10 nAChR: much less potent at the human vs. rat α9α10 nAChR
[4]
  Block of N-type calcium channels: blocks N-type calcium channels in dorsal root ganglion; also recorded: block N-type calcium channels in DRG neurons
  Effect of G-protein signalling inhibition on N-type channel block: block of N-type calcium channels was eliminated by pertussis toxin, intracellular GDPβS, or an inhibitor of pp60c-src tyrosine kinase
[5]
  Analgesic effect: analgesic activity in several models of neuropathic pain
[6]
  Competition with [3H]CGP54626: did not compete for binding with [3H]CGP54626
[7]
  Competition with CGP54626: did not compete for binding
[8]
  N-type calcium channel block in α9 KO neurons: block N-type calcium channels in cultured neurons from α9 KO mice
